{"source": "patent US20120172375A1", "about": "“COMPOUNDS AND METHODS OF PROMOTING OLIGODENDROCYTE PRECURSOR DIFFERENTIATION” (priority 2008, published 2012)", "key": {"[1]": {"system": "lysolecithin-demyelinated cerebellar explants", "test": "Myelin regeneration in lysolecithin-demyelinated cerebellar explants", "assay_type": "cell-based, mouse", "conditions": "1 μM, 10 additional days after lysolecithin", "experimental": "Myelination-demyelination-remyelination studies in cerebella organotypic cultures were carried out. In brief, after careful dissection to keep the tissue intact, cerebella of postnatal day 4-7 wild type or Plp-EGFP mouse pups was sectioned at 400-μm thickness using a Leica VT1000S vibratome. Cerebella sections were then plated on insert plates and a few droplets of high-glucose media were added to cover the tissue during the first 6 hours to allow attachment of the slices to the insert plate surface. Media used was 50% DMEM/F12, 25% Hank's buffered salt solution (both from Gibco), 25% horse serum, 5 mg/ml glucose and a combination of streptomycin/penicillin (Gibco). When the slices were firmly attached, fresh media was added to cover the tissue and the cultures were maintained in this conditions during 4-10 days. To induce demyelination, 0.5 mg/ml lysolecithin (I′-monoacyl-L-3-glycerylphosphorylcholine, Sigma) was added to the culture media for 17 hrs. After this time, the culture media was changed and treatments were performed by adding small molecules or DMSO controls to the plates for 4-10 additional days. Demyelination-remyelination was assessed by green fluorescence (Plp-EGFP) or immunostaining for myelin-axonal proteins and visualization was performed by confocal microscopy.\nAcute demyelination of cerebellum tissue explants has been previously used as a reliable methodology to study myelin formation and regeneration Taking advantage of our Pip-EGFP mouse, which allowed for the accurate tracking of oligodendrocyte cell behavior during myelination/demyelination/remyelination and the cerebellar explants methodology, we analyzed the effect of compounds A, A-7 and B or oligodendrocyte cells and myelin regeneration after demyeliantion of the cerebellar explants with lysolecithin. Cerebellum from postnatal day 7 mice pups (P7) was sectioned and maintained in culture (see methods). […]"}, "[2]": {"system": "cuprizone-fed C57B1/6J mice", "test": "Myelin protein (PLP/DM20, MOG) immunostaining densitometry in cuprizone-demyelinated mice", "assay_type": "in vivo", "conditions": "i.p., two doses", "experimental": "(§1) For in vivo experiments in mice, the cuprizone-mediated demyelination model was implemented as described elsewhere, (Sun et al., 2006; Wu et al., 2008). In brief, 9 week-old C57B1/J6 mice were fed with cuprizone supplemented chow (0.3%, Harlan) during 4-6 weeks. At the end of this period, while the mice were still on cuprizone diet, the animals were injected I.P. with the indicated concentrations of small molecules dissolved in DMSO. 72 hrs later, a second dose was administered and at that point the food was changed to regular chow. 48 hr after the second dose, the animals were sacrificed perfused with 4% paraformaldehyde (PFH) and the brain tissue processed or immunohistochemistry.\nImmunodetection of oligodendrocyte and myelin markers was performed. In brief, Oligodendrocyte cells plated on PDL-coated dishes were initially fixed in 2% paraformaldehyde (PFA) for 10 min at room temperature (RT) and then 4% PFA for 15 min, washed three times with PBS and permeabilized with 0.1% Triton X100 for 10 min at RT. After blocking with 3% BSA in PBS for 60 min a RT, the cells were incubated with primary antibodies at the indicated concentrations overnight (ON) at 4° C. The cells were washed three times with cold PBS incubated with secondary antibodies for 45 min at RT, and washed again before mounting. Immunostaining of tissue sections prepared with a sliding microtome (30 μm) was performed. In brief, tris buffered saline (TBS) containing 100 nM Sodium fluoride (TBSS) was used the all dilutions and washes. For antigen retrieval, sections were washed 3 times in TBSS, incubated in 5% methanol and 3% H2O2 for 10 min, washed 2 times, and then incubated in 10% Triton X-100 for 20 min. Blocking of unspecific bonds was performed by incubating the tissue sections with 10% NGS for 1 hr. Primary antibodies were diluted in 3% BSA containing 0.02% Triton X-100 and sections were incubated overnight in this solution. The next day the sections were washed 3 times in TBSS, followed by 1 hr incubation in secondary antibodies (1:1000) at 4° C. […]"}, "[3]": {"system": "cuprizone-fed C57B1/6J mice", "test": "Remyelination after cuprizone-mediated demyelination, Black and Gold staining for total myelin", "assay_type": "in vivo", "conditions": "i.p., two doses; for remyelination effect (Black and Gold stain, corpus callosum): 5-100 mg/kg", "experimental": "as §1\nBrain tissue staining with Black and Gold to detect total myelin was performed in 30 μm microtome floating sections after three washes in a saline solution (0.9% NaCl). Subsequently, the tissue sections were submerged in a 0.1% Black and Gold solution in saline preheated to 60° C. for 5 min. The tissue was incubated in that solution for 8-10 min. or until achievement of purple color was observed. After washing several times with saline, the staining was fixed with a solution of 2% sodium thiosulfate for 3 min., washed with saline three times and finally mounted and visualized.\nDemyelination in mouse brain induced by the copper chelator cuprizone administered in the diet is a well established animal model to study demyelination and subsequent remyelination after cuprizone withdrawal. The effect of cuprizone is evident in several brain areas being the demyeliantion of the corpus callosum the most reliable and consistent. In this study, we analyzed the effect of compounds A, A-7 and B on remyelination of six week cuprizone-fed C57B1/6J mice. Compounds were administered i.p. at the end of the sixth week (5-100 mg/kg) while the mice were still maintained on the cuprizone diet for three more days. At that point, a second injection of compounds was performed and then the mice were returned to regular chow for two more days to allow the natural remyelination process to take place. Mice were then sacrificed and the brain tissue prepared for immunohistochemistry."}}, "note": "Entries after “also recorded” stand apart in the source; their conditions may differ.", "data": [{"smiles": "CCS(=O)(=O)N1CCN(C(=O)COc2ccc(-c3ccccc3)cc2)CC1", "note": "[Compound A, 1-[(4-biphenylyloxy)acetyl]-4-(ethylsulfonyl)piperazine]", "values": [{"measurement": "oligodendrocyte cell recovery and myelin regeneration", "setting": "[1]", "result": "remarkable oligodendrocyte cell recovery; also recorded: evident oligodendrocyte cell recovery and myelin regeneration"}, {"measurement": "effect on myelin protein expression / remyelination enhancement", "setting": "[2]", "result": "recovery of myelin protein expression"}, {"measurement": "myelin levels relative to the non-cuprizone-fed animals (Black and Gold)", "setting": "[3]; 100 mg/kg", "result": 80, "unit": "%"}, {"measurement": "remyelination effect (Black and Gold stain, corpus callosum)", "setting": "[3]", "result": "highly significant at the lowest administered dose (5 mg/kg); also recorded: enhance remyelination"}]}, {"smiles": "CC(C)N1CCN(C(=O)COc2ccc(-c3ccccc3)cc2)CC1", "note": "[Compound A-7, 1-(Biphenyl-4-yloxy)acetyl-4-isopropylpiperazine]", "values": [{"measurement": "oligodendrocyte cell recovery and myelin regeneration", "setting": "[1]", "result": "remarkable oligodendrocyte cell recovery; also recorded: evident oligodendrocyte cell recovery and myelin regeneration"}, {"measurement": "effect on myelin protein expression / remyelination enhancement", "setting": "[2]", "result": "recovery of myelin protein expression"}, {"measurement": "remyelination effect (Black and Gold stain, corpus callosum)", "setting": "[3]", "result": "highly significant remyelination effect; also recorded: enhance remyelination"}]}, {"smiles": "O=[N+]([O-])c1ccc(F)c(NS(=O)(=O)c2ccc(F)cc2)c1", "note": "[Compound B, 4-fluoro-N-(2-fluoro-5-nitrophenyl)benzenesulfonamide]", "values": [{"measurement": "oligodendrocyte cell recovery and myelin regeneration", "setting": "[1]", "result": "remarkable oligodendrocyte cell recovery; also recorded: evident oligodendrocyte cell recovery and myelin regeneration"}, {"measurement": "effect on myelin protein expression / remyelination enhancement", "setting": "[2]", "result": "did not detect any relevant effect"}, {"measurement": "remyelination effect (Black and Gold stain, corpus callosum)", "setting": "[3]", "result": "did not detect a measurable induction of myelin recovery"}]}]}
